Reference: the NIST ThermoML archive (doi:10.1021/je900199j)
Several values for one entry are separate records, joined by “and”; a condition that tells them apart may be missing. Identical values can stand only once. Numbers after ± are expanded uncertainties.

Assay: mn = molality of the nth substance listed, in mol/kg
Conditions: 101 kPa, Liquid; for speed of sound: Frequency=4 MHz

O=[N+]([O-])[O-].[K+] [potassium nitrate] + O
m1 = 2.19
Conditions	mass density [kg/m3]	speed of sound
298.15 K	1115 ± 1.2	1558.8 ± 4.2 m/s
303.15 K	1112.5 ± 0.9	1566.8 ± 4.1 m/s
308.15 K	1109.8 ± 0.9	1572.8 ± 4.2 m/s and 1572.6 ± 4.2 m/s
313.15 K	1107 ± 0.9	1577.6 ± 4.2 m/s
318.15 K	1104 ± 1	1582 ± 4.2 m/s
323.15 K	1100.9 ± 1.3	1586.4 ± 4.2 m/s

[Cl-].[K+] [potassium chloride] + O
m1 = 2.13
Conditions	mass density [kg/m3]	speed of sound [m/s]
298.15 K	1087.7 ± 1.2	1592.8 ± 4.2
303.15 K	1085.7 ± 0.8	1600.4 ± 4.2
308.15 K	1083.6 ± 0.8	1608 ± 4.2
313.15 K	1081.3 ± 0.9	1614 ± 4.2
318.15 K	1078.8 ± 0.9	1617.2 ± 4.2
323.15 K	1076.1 ± 1.3	1622 ± 4.3
